Source: PMC11868595, “Safety, pharmacokinetics and efficacy of HA121-28 in patients with advanced solid tumors and RET fusion-positive non-small-cell lung cancer: a multicenter, open-label, single-arm phase 1/2 trial” (Signal Transduction and Targeted Therapy, 2025)

Tested on: patients with advanced solid tumors
Assay: Phase 1 trial: adverse events (CTCAE), DLT and MTD
Type: in vivo, human
Protocol: The phase 1 trial was a two-part, multicenter, open-label, nonrandomized study to evaluate the safety and preliminary efficacy of HA121-28.
Safety, tolerability, and PK of HA121-28 was assessed in dose-escalation part. The single-patient accelerated titration was carried out at 25 mg and 50 mg; then, the dose escalation proceeded according to a “3 + 3” design in dose range of 100 to 800 mg. Escalation to a higher dose level was considered by the satisfactory review of safety results from the previous lower dose during the first cycle.
The dose-expansion part aims to further access the safety and efficacy of HA121-28 at the selected doses based on data from the dose-escalation part. The RP2D was determined by investigators in view of a thorough review of safety, PK, and efficacy results.
In phase 1 trial, during the dose-escalation part, patients first administered HA121-28 in a single ascending dose under the fasted state, then followed up for seven days. Then, patients received ascending doses of HA121-28 (q.d.) on a 21-day on and 7-day off treatment scheme for a 28-day cycle. For patients deemed beneficial from the treatment by investigators, treatment could remain until disease progression, or they discontinued from the study. In the dose-expansion part of phase 1, as well as phase 2, patients received HA121-28 (q.d.) at the selected doses on a 21-day on and 7-day off treatment scheme until disease progression, or they discontinued from the study.
Treatment-emergent adverse events (TEAEs) were documented during the entire study period. The predefined adverse event of special interest (AESI) was ≥ grade 3 prolonged QT interval. Tumor imaging was performed using contrast-enhanced computed tomography or magnetic resonance imaging at screening, Day 28 of the first cycle, then approximately every eight weeks till the end of the study for phase 1; in phase 2, imaging was scheduled at screening, and every eight weeks during the first 40 weeks, followed by every 12 weeks for the rest of the study period. RECIST 1.1 was used by the independent review committee or investigators for assessment of tumor response. After the original assessment, a repeated assessment was required around four weeks later to confirm a complete or partial response.
The primary endpoints of phase 1 were to investigate the MTD, dose-limiting toxicities, and the incidence and severity of TEAEs. Each TEAE was graded according to the Common Terminology Criteria for Adverse Events (CTCAE, version 5.0) and coded by Medical Dictionary for Regulatory Activities (MedDRA, version 21.0). The secondary endpoints included calculating PK parameters, assessing the ORR and DCR at the recommended dose by investigators as per RECIST 1.1. The exploratory endpoint was PFS.
If grade 2 or higher toxicity related to the study drug occurs in Groups 1 and 2 (as determined by the investigator), dose escalation will proceed using a 3+3 design starting from that dose level. If no DLT is observed at the 800 mg/d dose level after dose escalation, a meeting of investigators will be convened to decide whether to proceed with further dose escalation based on the available PK data, safety, and tolerability information.
5. Definition of DLT and MTD
The following events related to the study drug (including those that are definitely related, highly likely to be related, and possibly related):
(1) Grade 4 hematologic toxicity or grade 3 neutropenia accompanied by a fever of 38.5℃ or higher, or grade 3 thrombocytopenia accompanied by severe bleeding.
(2) Patients who discontinued the medication for more than 7 days due to unresolved toxicity reactions or who discontinued the medication more than twice due to toxicity […]
(3) In the context of supportive treatment, diarrhea of grade 2 lasting more than 7 days, or grade 3 diarrhea lasting more than 3 days.

COc1cc2c(Nc3ccc(Br)cc3F)ncnc2cc1OCCCCN(C)C.Cl.Cl [HA121-28, N-(4-bromo-2-fluorophenyl)-7-(4-(dimethylamino)butoxy)-6-methoxy quinazolin-4-amine dihydrochloride]
Serious TRAE: Arrhythmia (Phase 1, 450 mg (N=79)): 1 (1.3) No. (%) | Serious TRAE: Blood bilirubin increased (Phase 1, 450 mg (N=79)): 0 No. (%) | Serious TRAE: Blood creatinine increased (Phase 1, 450 mg (N=79)): 0 No. (%) | Serious TRAE: COVID-19 (Phase 1, 450 mg (N=79)): 0 No. (%) | Serious TRAE: Cardiac tamponade (Phase 1, 450 mg (N=79)): 0 No. (%) | Serious TRAE: Coronary artery atherosclerosis (Phase 1, 450 mg (N=79)): 0 No. (%) | Serious TRAE: Death (Phase 1, 450 mg (N=79)): 0 No. (%) | Serious TRAE: Diarrhea (Phase 1, 450 mg (N=79)): 0 No. (%) | Serious TRAE: Drug eruption (Phase 1, 450 mg (N=79)): 0 No. (%) | Serious TRAE: Dyspnea (Phase 1, 450 mg (N=79)): 0 No. (%) | Serious TRAE: Embolism (Phase 1, 450 mg (N=79)): 0 No. (%) | Serious TRAE: Erythema multiforme (Phase 1, 450 mg (N=79)): 0 No. (%) | Serious TRAE: Headache (Phase 1, 450 mg (N=79)): 0 No. (%) | Serious TRAE: Hemoptysis (Phase 1, 450 mg (N=79)): 2 (2.5) No. (%) | Serious TRAE: Hydronephrosis (Phase 1, 450 mg (N=79)): 0 No. (%) | Serious TRAE: Hypertension (Phase 1, 450 mg (N=79)): 1 (1.3) No. (%) | Serious TRAE: Hypoalbuminemia (Phase 1, 450 mg (N=79)): 0 No. (%) | Serious TRAE: Intestinal obstruction (Phase 1, 450 mg (N=79)): 1 (1.3) No. (%) | Serious TRAE: Intra-abdominal fluid collection (Phase 1, 450 mg (N=79)): 0 No. (%) | Serious TRAE: Intracranial tumor hemorrhage (Phase 1, 450 mg (N=79)): 0 No. (%) | Serious TRAE: Liver injury (Phase 1, 450 mg (N=79)): 0 No. (%) | Serious TRAE: Lung adenocarcinoma (Phase 1, 450 mg (N=79)): 0 No. (%) | Serious TRAE: Malignant neoplasm progression (Phase 1, 450 mg (N=79)): 0 No. (%) | Serious TRAE: Multiple organ dysfunction syndrome (Phase 1, 450 mg (N=79)): 0 No. (%) | Serious TRAE: Nausea (Phase 1, 450 mg (N=79)): 0 No. (%) | Serious TRAE: Nephrolithiasis (Phase 1, 450 mg (N=79)): 0 No. (%) | Serious TRAE: Platelet counts decreased (Phase 1, 450 mg (N=79)): 0 No. (%) | Serious TRAE: Pleural effusion (Phase 1, 450 mg (N=79)): 0 No. (%) | Serious TRAE: Pneumonia (Phase 1, 450 mg (N=79)): 0 No. (%) | Serious TRAE: Pneumonitis (Phase 1, 450 mg (N=79)): 1 (1.3) No. (%) | Serious TRAE: Prolonged QT interval (Phase 1, 450 mg (N=79)): 0 No. (%) | Serious TRAE: Pulmonary embolism (Phase 1, 450 mg (N=79)): 0 No. (%) | Serious TRAE: Pyrexia (Phase 1, 450 mg (N=79)): 0 No. (%) | Serious TRAE: Rash (Phase 1, 450 mg (N=79)): 1 (1.3) No. (%) | Serious TRAE: Rectal hemorrhage (Phase 1, 450 mg (N=79)): 1 (1.3) No. (%) | Serious TRAE: Respiratory failure (Phase 1, 450 mg (N=79)): 0 No. (%) | Serious TRAE: Seizure (Phase 1, 450 mg (N=79)): 0 No. (%) | Serious TRAE: Septic shock (Phase 1, 450 mg (N=79)): 0 No. (%) | Serious TRAE: Sudden cardiac arrest (Phase 1, 450 mg (N=79)): 0 No. (%) | Serious TRAE: Sudden death (Phase 1, 450 mg (N=79)): 0 No. (%) | Serious TRAE: Upper respiratory tract infection (Phase 1, 450 mg (N=79)): 1 (1.3) No. (%) | Serious TRAE: Ventricular tachycardia (Phase 1, 450 mg (N=79)): 0 No. (%) | Serious TRAE: Vomiting (Phase 1, 450 mg (N=79)): 0 No. (%) | Serious TRAE: Weight loss (Phase 1, 450 mg (N=79)): 0 No. (%) | Serious TEAE: ALT increased (Phase 1, 600 mg (N=64)): 2 (3.1) No. (%) | Serious TEAE: AST increased (Phase 1, 600 mg (N=64)): 2 (3.1) No. (%) | Serious TEAE: Abdominal Pain (Phase 1, 600 mg (N=64)): 0 No. (%) | Serious TEAE: Abdominal distension (Phase 1, 600 mg (N=64)): 0 No. (%) | Serious TEAE: Acute cholecystitis (Phase 1, 600 mg (N=64)): 0 No. (%) | Serious TEAE: Acute pancreatitis (Phase 1, 600 mg (N=64)): 1 (1.6) No. (%) | Serious TEAE: Anal abscess (Phase 1, 600 mg (N=64)): 1 (1.6) No. (%) | Serious TEAE: Any (Phase 1, 600 mg (N=64)): 17 (26.6) No. (%) | Serious TEAE: Aortic intramural hematoma (Phase 1, 600 mg (N=64)): 0 No. (%) | Serious TEAE: Arrhythmia (Phase 1, 600 mg (N=64)): 0 No. (%) | Serious TEAE: Blood bilirubin increased (Phase 1, 600 mg (N=64)): 1 (1.6) No. (%) | Serious TEAE: Blood creatinine increased (Phase 1, 600 mg (N=64)): 1 (1.6) No. (%) | Serious TEAE: COVID-19 (Phase 1, 600 mg (N=64)): 0 No. (%)
